Measurements as given in patent publication US6727084B1, “Cold-active beta-galactosidase, the process for its preparation and the use thereof” (Universite de Liege, priority 1999, dated 2004).
“Also recorded” adds a separate entry of the source.

What was measured:
[1] = biological target: T1, Pseudoalteromonas haloplanktis LMG P-19143 cold-active β-galactosidase (lac Z), native, SEQ ID NO: 2 (Pseudoalteromonas haloplanktis, UniProt P81650); assay: effect of 2-mercaptoethanol on LMG P-19143 β-galactosidase activity; type: biochemical; set-up: ORF of 1038 residues; conditions: 80 mM 2-mercaptoethanol (optimal activity), 100 mM phosphate buffer; ONPG
T1 sequence (P81650 whole entry): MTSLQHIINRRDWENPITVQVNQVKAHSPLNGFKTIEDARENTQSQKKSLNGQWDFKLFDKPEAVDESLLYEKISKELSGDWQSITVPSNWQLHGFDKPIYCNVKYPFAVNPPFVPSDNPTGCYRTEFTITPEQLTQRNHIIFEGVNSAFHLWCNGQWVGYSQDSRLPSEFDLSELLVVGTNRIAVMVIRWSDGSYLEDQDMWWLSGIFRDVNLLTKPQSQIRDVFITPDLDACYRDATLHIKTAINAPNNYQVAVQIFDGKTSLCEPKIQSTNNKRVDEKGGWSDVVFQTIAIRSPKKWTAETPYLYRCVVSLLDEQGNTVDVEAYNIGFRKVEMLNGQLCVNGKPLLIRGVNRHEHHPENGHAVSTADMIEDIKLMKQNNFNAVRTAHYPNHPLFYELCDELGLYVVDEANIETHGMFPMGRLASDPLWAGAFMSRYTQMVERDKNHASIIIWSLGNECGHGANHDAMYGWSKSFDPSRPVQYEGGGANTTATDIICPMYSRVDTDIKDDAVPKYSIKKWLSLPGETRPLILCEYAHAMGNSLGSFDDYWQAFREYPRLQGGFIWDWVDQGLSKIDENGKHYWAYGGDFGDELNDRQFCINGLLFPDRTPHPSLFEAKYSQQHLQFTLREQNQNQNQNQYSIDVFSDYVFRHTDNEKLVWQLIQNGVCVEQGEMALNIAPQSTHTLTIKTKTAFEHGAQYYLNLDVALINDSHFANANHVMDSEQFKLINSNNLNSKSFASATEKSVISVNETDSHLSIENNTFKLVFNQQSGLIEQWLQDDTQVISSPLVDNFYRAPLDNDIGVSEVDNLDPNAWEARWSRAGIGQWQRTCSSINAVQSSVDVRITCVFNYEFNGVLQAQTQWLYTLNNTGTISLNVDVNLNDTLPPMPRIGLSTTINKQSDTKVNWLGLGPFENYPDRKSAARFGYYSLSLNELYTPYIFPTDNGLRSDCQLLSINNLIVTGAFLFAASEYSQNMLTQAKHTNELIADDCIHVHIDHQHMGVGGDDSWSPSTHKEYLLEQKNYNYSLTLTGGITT
Description: (§1) The effect of K+ was determined by assaying activity in 100 mM phosphate buffer containing KCl at concentrations from 0 to 100 mM. LMG P-19143 β-galactosidase optimal activity was recorded using a KCl concentration of 80 mM whereas the E. coli β-galactosidase optimal activity was recorded at a KCl concentration of 40 mM. At theses concentrations, KCl stimulated the activity of both enzymes by a factor of 1.5.
(§2) Optimal activity of the LMG P-19143 enzyme was recorded at 80 mM 2-mercaptoethanol and that of E. coli enzyme at 40 mM 2-mercaptoethanol. At these concentrations, the reducing agent stimulated LMG P-19143 enzyme activity twofold and E. coli enzyme by a factor of 1.5.

[2] = biological target: T2, E. coli β-galactosidase (Sigma G2513) (Escherichia coli, UniProt P00722); assay: biochemical; conditions: read-out: stimulation of enzyme activity by 2-mercaptoethanol (factor)
T2 sequence (P00722 whole entry): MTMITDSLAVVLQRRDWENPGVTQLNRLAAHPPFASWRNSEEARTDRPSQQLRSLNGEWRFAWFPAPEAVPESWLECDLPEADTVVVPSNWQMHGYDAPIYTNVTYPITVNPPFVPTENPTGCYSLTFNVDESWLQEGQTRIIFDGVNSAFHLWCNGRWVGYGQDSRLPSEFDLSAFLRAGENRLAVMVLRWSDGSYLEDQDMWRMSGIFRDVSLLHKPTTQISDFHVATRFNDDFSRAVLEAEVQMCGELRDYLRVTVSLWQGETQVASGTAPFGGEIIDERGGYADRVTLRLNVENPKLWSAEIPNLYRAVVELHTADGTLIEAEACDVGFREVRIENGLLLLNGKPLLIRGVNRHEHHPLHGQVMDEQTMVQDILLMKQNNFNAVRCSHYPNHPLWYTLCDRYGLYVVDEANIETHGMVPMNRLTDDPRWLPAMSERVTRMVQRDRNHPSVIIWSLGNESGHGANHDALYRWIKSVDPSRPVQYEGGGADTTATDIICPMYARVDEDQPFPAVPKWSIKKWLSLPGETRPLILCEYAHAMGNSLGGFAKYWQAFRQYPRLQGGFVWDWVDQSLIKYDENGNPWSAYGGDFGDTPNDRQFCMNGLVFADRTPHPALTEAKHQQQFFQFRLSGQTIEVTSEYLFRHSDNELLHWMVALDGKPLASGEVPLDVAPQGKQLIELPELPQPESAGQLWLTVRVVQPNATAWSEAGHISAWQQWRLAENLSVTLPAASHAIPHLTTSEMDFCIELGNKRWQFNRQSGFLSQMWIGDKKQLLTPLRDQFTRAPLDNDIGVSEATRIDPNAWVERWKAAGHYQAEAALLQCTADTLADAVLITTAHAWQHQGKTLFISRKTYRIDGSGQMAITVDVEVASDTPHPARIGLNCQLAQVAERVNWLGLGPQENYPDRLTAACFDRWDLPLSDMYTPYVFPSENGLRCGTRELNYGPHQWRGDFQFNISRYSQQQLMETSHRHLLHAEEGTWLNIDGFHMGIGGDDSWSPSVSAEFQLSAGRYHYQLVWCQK
Description: (§3) The β-galactosidase from Escherichia coli used as a control was from Sigma (G2513).
as §1, §2

[3] = biological target: T1, Pseudoalteromonas haloplanktis LMG P-19143 cold-active β-galactosidase (lac Z), native, SEQ ID NO: 2; assay: biochemical; conditions: pH 7.5, read-out: residual activity after EDTA treatment (% of initial activity)
Description: The assay of β-galactosidase was carried out using 3 mM ONPG (ortho-nitrophenyl-β-galactopyranoside) as a chromogenic substrate in 100 mM sodium phosphate buffer, pH 7,3, 1 mM MgCl2, 100 mM 2-mercaptoethanol (Sigma). Activities toward the chromogenic substrate were recorded in a thermostated Uvicon 860 Spectrophotometer (Kontron) at 25° C. and calculated on the basis of an extinction coefficient for o-nitrophenol of 3.5 mM^−1 cm^−1 at 410 nm (Miller, J. H. and Reznikoff, W. S., Eds. 1978; The Operon. Cold Spring Harbor Laboratory Press, N.Y.). Assays using lactose as a substrate were carried out using various concentrations of lactose. The reaction was stopped by boiling the sample in a water bath for 3 minutes. The galactose dehydrogenase assay was used to measure the amount of galactose released by the enzyme (Schachter H. 1975, Enzymatic microassays for D-Mannose, D-Glucose, D-Galactose, L-Fucose, and D-Glucosamine. Methods Enzymol., 41: 3-10.) The specific activity of β-galactosidase is defined as micro-moles of galactose released per minute per mg of protein.
To determine the effect of divalent metal ions on activity, assays were performed in 100 mM phosphate buffer at 25° C. and pH 7.5. The enzyme preparation was treated with 5 mM EDTA to complex metal ions.

[4] = biological target: T2, E. coli β-galactosidase (Sigma G2513); assay: kinetics of E. coli β-galactosidase (control) with ONPG as substrate; type: biochemical
From the text: (§4) The definition of enzyme activity units can be defined according to the substrate used with lactose as a substrate, the unit of activity is defined as the amount of enzyme which releases one micro-mole glucose in one minute under standard reaction conditions (temperature, pH). Another commonly used substrate is ortho-nitrophenyl-β-D galactopyranoside (ONPG) and in this case, the unit of activity is defined as the amount of enzyme which hydrolyses one micro-mole of ONPG in one minute under standard reaction conditions.
as §3
(§5) The activation energy (Ea) was determined from the slope (−Ea/R) of Arrhenius plot and the thermodynamic activation parameters of the reaction were calculated according to the following equations: […]
(§6) At 8° C., the kcat (s^−1) of the LMG P-19143 enzyme is twice as high as that of E. coli enzyme. Theses curves have been used to construct Arrhenius plots and to calculate the activation energy parameters of the reaction as shown in table 2.
(§7) Assays were performed with ONPG as a substrate at various concentrations and at different temperatures to determine Km and Vmax values.

[5] = biological target: T1, Pseudoalteromonas haloplanktis LMG P-19143 cold-active β-galactosidase (lac Z), native, SEQ ID NO: 2; assay: kinetics of LMG P-19143 β-galactosidase with ONPG as substrate; type: biochemical; set-up: ORF of 1038 residues
From the text: as §4, §5, §6, §7

[6] = biological target: T1, Pseudoalteromonas haloplanktis LMG P-19143 cold-active β-galactosidase (lac Z), native, SEQ ID NO: 2; assay: kinetics of LMG P-19143 β-galactosidase with lactose as substrate (galactose dehydrogenase assay); type: biochemical; set-up: ORF of 1038 residues; conditions: 25° C.
From the text: as §4
Km was also determined at 25° C. with lactose (1 mM to 50 mM) as a substrate.

## OCCS [2-mercaptoethanol]
[1]
  stimulation of enzyme activity by 2-mercaptoethanol: twofold
[2]
  fold induction at 40000 µM: 1.5

## O=C(O)CN(CCN(CC(=O)O)CC(=O)O)CC(=O)O [EDTA]
[3]
  remaining activity at 5000 µM: < 10%

## O=[N+]([O-])c1ccccc1O[C@@H]1O[C@H](CO)[C@H](O)[C@H](O)[C@H]1O [ONPG, ortho-nitrophenyl-β-D galactopyranoside]
[4]; 10° C.
  apparent Km (compared with LMG P-19143 enzyme): nearly the same
[4]; 20° C.
  kcat: 199 s⁻¹
[4]; at low temperature
  km (comparison of both enzymes): comparable
[5]; ONPG as substrate, 8° C.
  kcat relative to that of E. coli enzyme: twice as high
[5]; ONPG as substrate, 10° C.
  apparent Km (compared with E. coli enzyme): nearly the same
[5]; ONPG as substrate, 20° C.
  kcat: 408 s⁻¹
[5]; ONPG as substrate, at low temperature
  km (comparison of both enzymes): comparable
[5]; ONPG as substrate, FIG. 6
  physiological efficiency (kcat/km) relative to E. coli enzyme: about three times higher
[5]; ONPG, temperature range of 0-40° C.
  turnover (kcat) relative to E. coli enzyme: higher

## OC[C@H]1O[C@@H](O[C@H]2[C@H](O)[C@@H](O)C(O)O[C@@H]2CO)[C@H](O)[C@@H](O)[C@H]1O (stereo partly drawn) [lactose]
[6]
  km relative to E. coli enzyme: five times lower
  physiological efficiency (kcat/km) relative to E. coli β-galactosidase: eighty times as high; also recorded: ninety times higher
  turnover (kcat) relative to E. coli enzyme: fifteen times
